From US20020052000A1, “Diagnostics for and mediators of inflammatory disorders” (priority 1996, published 2002)

What was measured:
ICAM-1 [1] = assay: Cell surface ICAM-1 expression on HAEC by ELISA; format: cell-based, human; conditions: for induction of cell surface ICAM expression: HAEC exposed 16 hr
Experimental: In a small scale synthesis reaction, sLO converted 250 uM linoleic acid (LA) into 13-HpODE within the first hour of room temperature incubation. During the subsequent 3 days incubation, 13-HpODE presumably oxidatively modified the enzyme and generating epitopes on the enzyme which can elicit biological s activity such as the expression of cell surface ICAM on HAEC as shown in ELISA assay depicted in FIG. 11. […] In the large scale synthesis reaction, only in the presence of the 13-HpODE generating system did the sLO become active as shown in FIG. 12. sLO negative control represented the sLO enzyme incubated with buffer alone for the extended period of time. We have confirmed the oxSLO synthesized by either method are functionally and immunologically identical. Furthermore, we have determined that formation of a biologically activity is protein specific. Reaction of rabbit serum albumin using the large or small scale oxykine reaction generates immunoreactive but not biologically active products.
(§1) It was investigated whether the oxidative modification of rabbit serum albumin RSA by linoleic hydroperoxide alters the structural or biological property of an element (peptide or nonpeptide) in this material, conferring upon it a biological function as a vascular endothelial cell inflammatory signal. Using oxidatively modified RSA (oxRSA) prepared as described in Example 1, cultured human aortic endothelial cells were exposed for 12 hours with a range of oxRSA concentrations from 1 to 100 nM (nanomolar), and assayed for the cell surface expression of the inducible adhesion molecules VCAM-1, ICAM-1 or the constituitively expressed adhesion molecule ICAM-2 by ELISA assay. […] Furthermore, limulus assay for LPS in the oxRSA preparation was below detection. Constituitively expressed ICAM-2 was unaffected.

ICAM-1 [2] = conditions: human aortic endothelial cells; cited from earlier work
VCAM-1 [3] = conditions: cited from earlier work; for induction of cell-surface expression of VCAM-1: human aortic endothelial cells
E-selectin = conditions: human aortic endothelial cells; cited from earlier work
anti-LOOH/RSA antibody = assay: ELISA recognition of modified proteins/peptides by anti-LOOH/RSA antibody; format: binding, rabbit
Experimental: Using ELISA, it was investigated whether the LOOH/RSA antibody recognized the LOOH/modified protein and unmodified protein. Unmodified IgG-free RSA was used as control. incubation at 37° C., wells were washed with PBS three times. Goat anti-rabbit IgG conjugated with alkaline phosphatase was diluted to 1:38,000 and added. After 2 hrs incubation at 37 °C, wells were washed again and p-nitrophenolphosphate was added. Color development was determined by a plate reader (Anthos II).
Microtiter wells were coated with increasing concentrations of unmodified, or modified peptide. After blocking wells with non-fat milk powder, 100 μl of 1:250 dilution of anti-LOOH/RSA antibody was added to each well. After wash, anti-rabbit IgG conjugated with alkaline phosphatase was added to each well. After adding substrate p-nitrophenyl phosphate, the OD was measured at 405 nm using a microplate reader. Values represent averages of a triplicate set of optical density readings of wells from one of at least 2 separate trials. 20 Western blot analysis of the aldehyde- and LOOH-modified peptide confirmed that none of the aldehyde-modified synthetic proteins were recognized to any significant extent, whereas LOOH-modified peptide was recognized by the antibody.

VCAM-1 [4] = assay: Cell surface VCAM-1 expression on HAEC by ELISA; format: cell-based, human
Source text: (§2) The ELISA data is supported by the Northern Blot data as illustrated in FIG. 15. […] Within 2-6 hr of stimulation, the mRNA level of the indicated genes all reached a steady state.
as §1

VCAM-1 mRNA = assay: Northern blot VCAM-1 mRNA accumulation in HAEC; format: cell-based, human
Experimental: as §2
(§3) It was next investigated whether the induction of VCAM-1 and ICAM-1 cell surface expression by ox-RSA is due at least in part to changes in mRNA accumulation. Northern filter analysis was performed from RNA isolated from HAEC exposed for 4 hours With either TNFa (100 U/ml) or oxRSA (25 nM). Similar to that observed at the protein level, VCAM-mRNA levels were induced by ox-RSA to levels approximately 30-40% observed for TNFa.

ICAM-2 = assay: Cell surface ICAM-2 expression on HAEC by ELISA; format: cell-based, human; conditions: 12 hours
Experimental: as §1

ICAM-1 mRNA = assay: Northern blot ICAM-1 mRNA accumulation in HAEC; format: cell-based, human
Experimental: as §2, §3

[5] = test system: NF-kB like DNA binding activity; assay: Gel mobility shift assay, NF-kB-like binding sites of VCAM-1 promoter; format: cell-based, human; conditions: HAEC, two hours; TNFa 100 U/ml or oxRSA 25 nM
Experimental: To determine whether oxRSA modulated nuclear regulatory events associated with redox sensitive VCAM-1 gene expression, cultured human aortic endothelial cells were exposed or not (CTL) for two hours to TNFa (100 U/ml) or 25 nM of the oxykine RSA-LOOH (oxRSA), nuclear extracts prepared and gel mobility shift assays performed using 32P-labeled kL0kR, the tandem NF-kB-like binding sites of the human VCAM-1 promoter. Appropriate cold competitor and supershift controls using anti-p50 and anti-p65 antisera (R&D Systems) were performed to establish the DNA sequence binding specificity of the NF-kB complex band. Both TNF and oxRSA inducted NF-kB like DNA binding activity.

MCP-1 mRNA = assay: Northern blot MCP-1 mRNA accumulation in HAEC; format: cell-based, human
Source text: as §2

[6] = VCAM-1 and ICAM-1 induction, polymyxin B 10 ug/ml

CC(C)(Sc1cc(C(C)(C)C)c(O)c(C(C)(C)C)c1)Sc1cc(C(C)(C)C)c(O)c(C(C)(C)C)c1 [probucol]
effect of addition on ICAM-1 induction by the oxykine (ICAM-1 [1]): no effect

CCCCCCCCCCCCCCCCCC(=O)O [stearic acid]
induction of cell-surface expression of ICAM-1 (ICAM-1 [2]): do not induce
induction of cell-surface expression of VCAM-1 (VCAM-1 [3]): do not induce
induction of cell-surface expression of E-selectin (E-selectin): do not induce

RSA: unmodified IgG-free rabbit serum albumin used as control
recognition by the antibody in ELISA (anti-LOOH/RSA antibody): barely recognized

Cc1c(C)c2c(c(C)c1O)CCC(C)(C(=O)O)O2 (centres unmarked) [Trolox]
effect of addition on ICAM-1 induction by the oxykine (ICAM-1 [1]): no effect

CCCCC/C=C\C/C=C\C/C=C\C/C=C\CCCC(=O)O [arachidonic acid]
induction of cell-surface expression of ICAM-1 (ICAM-1 [2]): not
induction of cell-surface expression of VCAM-1 (VCAM-1 [3]): induce
induction of cell-surface expression of E-selectin (E-selectin): not

polymyxin B
effect on LPS induction (VCAM-1 [4]; [6]): fully inhibited
effect on oxRSA activation (VCAM-1 [4]; [6]): no effect

CCCCC/C=C\C/C=C\CCCCCCCC(=O)O [LA, linoleic acid]
induction of cell surface ICAM expression (ICAM-1 [1]): did not become active
induction of cell-surface expression of ICAM-1 (ICAM-1 [2]): not
induction of cell-surface expression of VCAM-1 (VCAM-1 [3]): induce
induction of cell-surface expression of E-selectin (E-selectin): not

YVTKSYNETKIKFDKYKAKSHEDEL [Native peptide]
recognition by the antibody in ELISA (anti-LOOH/RSA antibody): failed to recognize

S=C(S)N1CCCC1 [PDTC, pyrrolidine dithiocarbamate]
effect on induction of VCAM-1 by PUFAs and their fatty acid hydroperoxides (VCAM-1 [3]): suppressed

O=C(O)CN(CCN(CC(=O)O)CC(=O)O)CC(=O)O [EDTA]
effect of addition on ICAM-1 induction by the oxykine (ICAM-1 [1]): no effect

CCCCCCCC/C=C\CCCCCCCC(=O)O [oleic acid]
induction of cell-surface expression of ICAM-1 (ICAM-1 [2]): do not induce
induction of cell-surface expression of VCAM-1 (VCAM-1 [3]): do not induce
induction of cell-surface expression of E-selectin (E-selectin): do not induce

linoleyl 194 hydroperoxide
induction of cell-surface expression of ICAM-1 (ICAM-1 [2]): not
induction of cell-surface expression of VCAM-1 (VCAM-1 [3]): induce
induction of cell-surface expression of E-selectin (E-selectin): not

oxRSA: rabbit serum albumin oxidatively modified by linoleic hydroperoxide (13-HPODE), Example 1
induction of ICAM-1 as percent of maximal TNF-a induced signal (ICAM-1 [1]; HAEC, 12 hours, 1 to 100 nM): 80%
EC50 (ICAM-1 [1]; HAEC, 12 hours, read-out: approximate EC50 for ICAM-1 induction): 10 to 15 nM
VCAM-mRNA level relative to that observed for TNFa (VCAM-1 mRNA; 4 hours, 25 nM, TNFa 100 U/ml): 30-40%
induction of VCAM-1 as percent of maximal TNF-a induced signal (VCAM-1 [4]; HAEC, 12 hours, 1 to 100 nM): 40%
EC50 (VCAM-1 [4]; HAEC, 12 hours, read-out: approximate EC50 for VCAM-1 induction): 10 to 15 nM
effect on constitutively expressed ICAM-2 (ICAM-2): unaffected
ICAM-1 mRNA induction (ICAM-1 mRNA; 4 hours, 25 nM): induced
NF-kB like DNA binding activity [5]: inducted
concentration corresponding to least amount recognized (anti-LOOH/RSA antibody): < 2 nM
least amount recognized by the antibody (anti-LOOH/RSA antibody; antibody 1:250, above control protein): 10 ng

B1: soybean lipoxygenase (protein, UniProt P08170 1-839, looked up)
Seed linoleate …: MFSAGHKIKGTVVLMPKNELEVNPDGSAVDNLNAFLGRSVSLQLISATKADAHGKGKVGKDTFLEGINTSLPTLGAGESAFNIHFEWDGSMGIPGAFYIKNYMQVEFFLKSLTLEAISNQGTIRFVCNSWVYNTKLYKSVRIFFANHTYVPSETPAPLVSYREEELKSLRGNGTGERKEYDRIYDYDVYNDLGNPDKSEKLARPVLGGSSTFPYPRRGRTGRGPTVTDPNTEKQGEVFYVPRDENLGHLKSKDALEIGTKSLSQIVQPAFESAFDLKSTPIEFHSFQDVHDLYEGGIKLPRDVISTIIPLPVIKELYRTDGQHILKFPQPHVVQVSQSAWMTDEEFAREMIAGVNPCVIRGLEEFPPKSNLDPAIYGDQSSKITADSLDLDGYTMDEALGSRRLFMLDYHDIFMPYVRQINQLNSAKTYATRTILFLREDGTLKPVAIELSLPHSAGDLSAAVSQVVLPAKEGVESTIWLLAKAYVIVNDSCYHQLMSHWLNTHAAMEPFVIATHRHLSVLHPIYKLLTPHYRNNMNINALARQSLINANGIIETTFLPSKYSVEMSSAVYKNWVFTDQALPADLIKRGVAIKDPSTPHGVRLLIEDYPYAADGLEIWAAIKTWVQEYVPLYYARDDDVKNDSELQHWWKEAVEKGHGDLKDKPWWPKLQTLEDLVEVCLIIIWIASALHAAVNFGQYPYGGLIMNRPTASRRLLPEKGTPEYEEMINNHEKAYLRTITSKLPTLISLSVIEILSTHASDEVYLGQRDNPHWTSDSKALQAFQKFGNKLKEIEEKLVRRNNDPSLQGNRLGPVQLPYTLLYPSSEEGLTFRGIPNSISI
notes: unmodified soybean lipoxygenase, negative control
induction of cell surface ICAM expression (ICAM-1 [1]): did not become active
induction of cell surface ICAM expression (ICAM-1 [1]; listed as unmodified sLO): failed to activate
VCAM-1 mRNA (VCAM-1 mRNA; 0.008 ug/ml): −0.14 arbitrary units
VCAM-1 mRNA (VCAM-1 mRNA; 0.08 ug/ml): 0.12 arbitrary units
VCAM-1 mRNA (VCAM-1 mRNA; 0.8 ug/ml): 3.36 arbitrary units
VCAM mRNA accumulation (VCAM-1 mRNA; Northern blot, 4 hr): not
ICAM-1 mRNA (ICAM-1 mRNA; 0.008 ug/ml): −0.51 arbitrary units
ICAM-1 mRNA (ICAM-1 mRNA; 0.08 ug/ml): −0.09 arbitrary units
ICAM-1 mRNA (ICAM-1 mRNA; 0.8 ug/ml): 3.14 arbitrary units
MCP-1 mRNA (MCP-1 mRNA; 0.008 ug/ml): 1.12 arbitrary units
MCP-1 mRNA (MCP-1 mRNA; 0.08 ug/ml): 3.1 arbitrary units
MCP-1 mRNA (MCP-1 mRNA; 0.8 ug/ml): 12.34 arbitrary units
MCP-1 mRNA accumulation (MCP-1 mRNA; Northern blot): not
